These are literature values, as cited in patent US20020052320A1, “Sustained peptide-release formulation” (Peptech Limited, priority 1996, published 2002).

One data set concerns prostate cancer in rats. The following applies: controlled dose over 30 days vs equivalent or double doses of free peptide.
Data set [1] relates to advanced prostatic cancer. The note with it: monthly subcutaneous injections.

Regarding `CC(C)C[C@H](NC(=O)[C@@H](Cc1c[nH]c2ccccc12)NC(=O)[C@H](Cc1ccc(O)cc1)NC(=O)[C@H](CO)NC(=O)[C@H](Cc1c[nH]c2ccccc12)NC(=O)[C@H](Cc1c[nH]cn1)NC(=O)[C@@H]1CCC(=O)N1)C(=O)N[C@@H](CCCNC(=N)N)C(=O)N1CCC[C@H]1C(=O)NCC(N)=O` [triptorelin, 5-oxo-L-prolyl-L-histidyl-L-tryptophyl-L-seryl-L-tyrosyl-D-tryptophyl-L-leucyl-L-arginyl-L-prolylglycinamide], in the data set on prostate cancer in rats, the “suppression of prostate tumour weight, microencapsulated form vs daily subcutaneous free peptide” value is on record as “more effective” and the “suppression of serum testosterone levels, microencapsulated form vs daily subcutaneous free peptide” value was “more effective”.
As for `CC(C)C[C@H](NC(=O)[C@@H](COC(C)(C)C)NC(=O)[C@H](Cc1ccc(O)cc1)NC(=O)[C@H](CO)NC(=O)[C@H](Cc1c[nH]c2ccccc12)NC(=O)[C@H](Cc1cnc[nH]1)NC(=O)[C@@H]1CCC(=O)N1)C(=O)N[C@@H](CCCNC(=N)N)C(=O)N1CCC[C@H]1C(=O)NNC(N)=O` [goserelin, 3-[5-oxo-L-prolyl-L-tryptophyl-L-seryl-L-tyrosyl-(3-O-tert-butyl)-D-seryl-L-1eucyl-L-arginyl-L-prolyl]cabazamide acetate], in data set [1], the “efficacy compared with orchiectomy” value was “as effective as orchiectomy” and the tolerability result was “well tolerated”.
